The source of these data is patent US5935932A, “Bradykinin antagonists containing pentafluorophenylalanine” (University Technology Corporation, priority 1998, dated 1999).

For assay [1], the target named is T1, bradykinin receptors in Rat Uterus (Rattus norvegicus, UniProt P25023).
T1 construct: describes the Rat Uterus assay used to analyze the present compounds; from tissue; host or cells: isolated rat uterus
T1 sequence (P25023 1-396): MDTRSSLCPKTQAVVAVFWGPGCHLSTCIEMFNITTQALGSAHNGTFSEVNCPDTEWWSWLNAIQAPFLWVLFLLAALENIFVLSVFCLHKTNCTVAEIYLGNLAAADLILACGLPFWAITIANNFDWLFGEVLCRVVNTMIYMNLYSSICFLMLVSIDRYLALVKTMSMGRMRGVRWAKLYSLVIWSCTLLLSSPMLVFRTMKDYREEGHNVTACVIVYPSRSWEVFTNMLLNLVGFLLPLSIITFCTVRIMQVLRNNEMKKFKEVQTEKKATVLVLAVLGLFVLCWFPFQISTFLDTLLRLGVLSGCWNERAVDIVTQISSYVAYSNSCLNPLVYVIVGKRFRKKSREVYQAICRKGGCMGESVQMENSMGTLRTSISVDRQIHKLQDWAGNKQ
In words: Rat Uterus functional assay. In kind it is cell-based. The source says:
4. Rat Uterus functional assay Trautshold, Handbook of Expt. Pharmacol. […] The Trautshold method was used without changes to the parameters. U.S. Pat. No. 4,693,993, at Column 14, line 10 gives a general description of data analysis for this assay. In this table, I=inhibitor, and numbers in parenthesis are pA2. Agonist activity are given as percent BK activity.

For assay [2], the target named is T2, bradykinin receptors in Guinea Pig Ileum (Cavia porcellus, UniProt O70526).
T2 construct: describes the Guinea Pig Ileum assay used to analyze the present compounds; from tissue; host or cells: isolated guinea pig ileum
T2 sequence (O70526 1-372): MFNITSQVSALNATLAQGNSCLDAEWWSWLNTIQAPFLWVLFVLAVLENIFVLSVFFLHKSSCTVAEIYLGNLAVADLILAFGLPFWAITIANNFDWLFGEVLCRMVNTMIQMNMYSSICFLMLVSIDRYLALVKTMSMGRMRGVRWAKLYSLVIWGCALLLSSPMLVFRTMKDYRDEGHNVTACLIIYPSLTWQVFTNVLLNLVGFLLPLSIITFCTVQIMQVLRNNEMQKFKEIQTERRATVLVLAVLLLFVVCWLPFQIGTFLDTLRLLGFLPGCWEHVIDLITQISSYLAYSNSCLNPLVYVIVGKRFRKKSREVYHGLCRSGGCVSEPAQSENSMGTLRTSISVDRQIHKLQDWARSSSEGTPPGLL
Put plainly: Guinea Pig Ileum functional assay. In kind it is cell-based. The source says: 5. Guinea Pig Ileum functional assay
Trautshold, Handbook of Expt. Pharmacol. Vol 25, Springer Verlag pp 53-55 (1970) describes the Guinea Pig Ileum assay used to analyze the present compounds. The Trautshold method was used without changes to the parameters. U.S. Pat. No. 4,693,993, at Column 14, line 10 gives a general description of data analysis for this assay.
In this table, I=inhibitor, and numbers in parenthesis are pA2. Agonist activity are given as percent BK activity.

Where [3] appears, read: number in parenthesis is pA2, read-out: Ileum, pA2 (I=inhibitor) (converted).
Where [4] appears, read: Ileum, pA2 (I=inhibitor), number in parenthesis is pA2.

Structures are written as SMILES. Read-outs that look alike come from different tables or passages of the source. Where a SMILES comes first, the peptide text is derived from it. [ ]: non-standard residue; d: D form. dPhe(F5) = N[C@H](Cc1c(F)c(F)c(F)c(F)c1F)C(=O)O; Oic = O=C(O)[C@@H]1C[C@@H]2CCCC[C@@H]2N1; Igl = N[C@H](C(=O)O)C1Cc2ccccc2C1; Hyp = O=C(O)[C@@H]1C[C@@H](O)CN1; NMeF = CN[C@@H](Cc1ccccc1)C(=O)O

`N=C(N)NCCC[C@@H](N)C(=O)N[C@@H](CCCNC(=N)N)C(=O)N1CCC[C@H]1C(=O)N1C[C@H](O)C[C@H]1C(=O)NCC(=O)N[C@H](C(=O)N[C@@H](CO)C(=O)N[C@H](Cc1c(F)c(F)c(F)c(F)c1F)C(=O)N1[C@H](C(=O)N[C@@H](CCCNC(=N)N)C(=O)O)C[C@@H]2CCCC[C@@H]21)C1Cc2ccccc2C1` [Compound B10044, DArg-Arg-Pro-Hyp-Gly-Igl-Ser-Df5f-Oic-Arg]: the Kb in assay [1] was 7.94 nM; in assay [2] (setting [3]), 3.98 nM.
Consider `N=C(N)NCCC[C@@H](N)C(=O)N[C@@H](CCCNC(=N)N)C(=O)N1CCC[C@H]1C(=O)N1C[C@H](O)C[C@H]1C(=O)NCC(=O)N[C@H](C(=O)N[C@@H](CO)C(=O)N[C@H](Cc1c(F)c(F)c(F)c(F)c1F)C(=O)N[C@H](C(=O)N[C@@H](CCCNC(=N)N)C(=O)O)C1Cc2ccccc2C1)C1Cc2ccccc2C1` [Compound B10056, DArg-Arg-Pro-Hyp-Gly-Igl-Ser-Df5f-Igl-Arg], for which, in assay [1] (rat uterus), the “Uterus, agonist activity as percent BK activity” value was determined as 9.5%. In addition, the Kb in assay [2] (setting [4]) is 10 nM.
Regarding `N=C(N)NCCC[C@@H](N)C(=O)N[C@@H](CCCNC(=N)N)C(=O)N1CCC[C@H]1C(=O)N1C[C@H](O)C[C@H]1C(=O)NCC(=O)N[C@H](C(=O)N[C@@H](CO)C(=O)N[C@H](Cc1c(F)c(F)c(F)c(F)c1F)C(=O)N[C@@H](Cc1cccs1)C(=O)N[C@@H](CCCNC(=N)N)C(=O)O)C1Cc2ccccc2C1` [Compound B10058, DArg-Arg-Pro-Hyp-Gly-Igl-Ser-Df5f-Thi-Arg], the Kb was 6.31 nM in assay [1] and 12.6 nM in assay [2] (setting [3]).
On to `N=C(N)NCCC[C@@H](N)C(=O)N[C@@H](CCCNC(=N)N)C(=O)N1CCC[C@H]1C(=O)N1C[C@H](O)C[C@H]1C(=O)NCC(=O)N[C@H](C(=O)N[C@@H](CO)C(=O)N[C@H](Cc1c(F)c(F)c(F)c(F)c1F)C(=O)N(CC(=O)N[C@@H](CCCNC(=N)N)C(=O)O)C1CCCCC1)C1Cc2ccccc2C1` [Compound B10112, DArg-Arg-Pro-Hyp-Gly-Igl-Ser-Df5f-NchG-Arg], for which, in assay [1] (rat uterus), the “Uterus, agonist activity as percent BK activity” value turned out to be 21%. For the same compound, the Kb in assay [2] (setting [4]) is 25.1 nM.
As for `N=C(N)NCCC[C@H](NC(=O)[C@@H]1C[C@@H]2CCCC[C@@H]2N1C(=O)[C@@H](Cc1c(F)c(F)c(F)c(F)c1F)NC(=O)[C@H](CO)NC(=O)[C@H](Cc1cccs1)NC(=O)CNC(=O)[C@@H]1CCCN1C(=O)[C@@H]1CCCN1C(=O)[C@H](CCCNC(=N)N)NC(=O)[C@@H](CCCNC(=N)N)NC(=O)[C@H](CCCCN)NC(=O)CCCCCCCCCCC(=O)N[C@@H](CCCCN)C(=O)N[C@H](CCCNC(=N)N)C(=O)N[C@@H](CCCNC(=N)N)C(=O)N1CCC[C@H]1C(=O)N1CCC[C@H]1C(=O)NCC(=O)N[C@@H](Cc1cccs1)C(=O)N[C@@H](CO)C(=O)N[C@H](Cc1c(F)c(F)c(F)c(F)c1F)C(=O)N1[C@H](C(=O)N[C@@H](CCCNC(=N)N)C(=O)O)C[C@@H]2CCCC[C@@H]21)C(=O)O` [Compound B10118, αDDD-(Lys-DArg-Arg-Pro-Pro-Gly-Thi-Ser-Df5f-Oic-Arg)2], the Kb in assay [1] was 7.94 nM; in assay [2] (setting [3]), 5.01 nM.
In the case of `N=C(N)NCCC[C@H](NC(=O)[C@H](CCCCN)NC(=O)[C@@H](N)CCCCN)C(=O)N1CCC[C@H]1C(=O)N1C[C@H](O)C[C@H]1C(=O)NCC(=O)N[C@H](C(=O)N[C@@H](CO)C(=O)N[C@H](Cc1c(F)c(F)c(F)c(F)c1F)C(=O)N[C@H](C(=O)O)C1CCCCC1)C1Cc2ccccc2C1` [Compound B10146, Lys-Lys-Arg-Pro-Hyp-Gly-Igl-Ser-Df5f-Chg], the “Uterus, activity in words” value in assay [1] (rat uterus, symbol without number) was “Ag”. In addition, the Kb in assay [2] (setting [4]) was 1260 nM.
As to `N=C(N)NCCC[C@H](NC(=O)[C@H](CCCCN)NC(=O)[C@@H](N)CCCCN)C(=O)N1CCC[C@H]1C(=O)N1C[C@H](O)C[C@H]1C(=O)NCC(=O)N[C@H](C(=O)N[C@@H](CO)C(=O)N[C@H](Cc1c(F)c(F)c(F)c(F)c1F)C(=O)N1[C@H](C(=O)O)C[C@@H]2CCCC[C@@H]21)C1Cc2ccccc2C1` [Compound B10148, Lys-Lys-Arg-Pro-Hyp-Gly-Igl-Ser-Df5f-Oic], the Kb in assay [1] is 63.1 nM; in assay [2] (setting [3]), 1000 nM.
Consider `CN(C(=O)[C@H](CCCNC(=N)N)NC(=O)[C@H](N)CCCNC(=N)N)[C@@H](Cc1ccccc1)C(=O)N1C[C@H](O)C[C@H]1C(=O)NCC(=O)N[C@H](C(=O)N[C@@H](CO)C(=O)N[C@H](Cc1c(F)c(F)c(F)c(F)c1F)C(=O)N1[C@H](C(=O)N[C@@H](CCCNC(=N)N)C(=O)O)C[C@@H]2CCCC[C@@H]21)C1Cc2ccccc2C1` [Compound B10150, DArg-Arg-NMF-Hyp-Gly-Igl-Ser-Df5f-Oic-Arg] (H-[dR]R[NMeF][Hyp]G[Igl]S[dPhe(F5)][Oic]R-OH; N-terminus and C-terminus assumed), for which the Kb in assay [1] was 7.94 nM; in assay [2] (setting [3]) it was 12.6 nM.
On to `N=C(N)NCCC[C@H](NC(=O)[C@@H]1C[C@@H]2CCCC[C@@H]2N1C(=O)[C@@H](Cc1c(F)c(F)c(F)c(F)c1F)NC(=O)[C@H](CO)NC(=O)[C@@H](NC(=O)CNC(=O)[C@@H]1C[C@@H](O)CN1C(=O)[C@@H]1CCCN1C(=O)[C@H](CCCNC(=N)N)NC(=O)[C@@H](CCCNC(=N)N)NC(=O)C12CC3CC(CC(C3)C1)C2)C1Cc2ccccc2C1)C(=O)O` [Compound B10154, Aca-DArg-Arg-Pro-Hyp-Gly-Igl-Ser-Df5f-Oic-Arg], for which the Kb was 6.31 nM in assay [1] and 12.6 nM in assay [2] (setting [3]).
With `N=C(N)NCCC[C@H](NC(=O)[C@@H]1C[C@@H]2CCCC[C@@H]2N1C(=O)[C@@H](Cc1c(F)c(F)c(F)c(F)c1F)NC(=O)[C@H](CO)NC(=O)[C@@H](NC(=O)CNC(=O)[C@@H]1C[C@@H](O)CN1C(=O)[C@@H]1CCCN1C(=O)[C@H](CCCNC(=N)N)NC(=O)[C@@H](CCCNC(=N)N)NC(=O)CN(CCCNC(=N)N)CCCNC(=N)N)C1Cc2ccccc2C1)C(=O)O` [Compound B10156, Gun2-bApg-DArg-Arg-Pro-Hyp-Gly-Igl-Ser-Df5f-Oic-Arg], the Kb is 5.01 nM in assay [1] and 12.6 nM in assay [2] (setting [3]).
Consider `N=C(N)NCCC[C@H](NC(=O)[C@@H]1C[C@@H]2CCCC[C@@H]2N1C(=O)[C@@H](Cc1c(F)c(F)c(F)c(F)c1F)NC(=O)[C@H](CO)NC(=O)[C@@H](NC(=O)CNC(=O)[C@@H]1C[C@@H](O)CN1C(=O)[C@@H]1CCCN1C(=O)[C@H](CCCNC(=N)N)NC(=O)[C@@H](CCCNC(=N)N)NC(=O)[C@H](CCCCN)NC(=O)CCCCCCCCCCC(=O)N[C@@H](CCCCN)C(=O)N[C@H](CCCNC(=N)N)C(=O)N[C@@H](CCCNC(=N)N)C(=O)N1CCC[C@H]1C(=O)N1C[C@H](O)C[C@H]1C(=O)NCC(=O)N[C@H](C(=O)N[C@@H](CO)C(=O)N[C@H](Cc1c(F)c(F)c(F)c(F)c1F)C(=O)N1[C@H](C(=O)N[C@@H](CCCNC(=N)N)C(=O)O)C[C@@H]2CCCC[C@@H]21)C1Cc2ccccc2C1)C1Cc2ccccc2C1)C(=O)O` [Compound B10158, αDDD-(Lys-Darg-Arg-Pro-Hyp-Gly-Igl-Ser-Df5f-Oic-Arg)2], for which the Kb in assay [1] was 3.16 nM; in assay [2] (setting [3]), 10 nM.
The matching figures for `N=C(N)NCCC[C@@H](N)C(=O)N[C@@H](CCCNC(=N)N)C(=O)N1CCC[C@H]1C(=O)N1C[C@H](O)C[C@H]1C(=O)NCC(=O)N[C@@H](Cc1c(F)c(F)c(F)c(F)c1F)C(=O)N[C@@H](CO)C(=O)N[C@@H](C(=O)N1[C@H](C(=O)N[C@@H](CCCNC(=N)N)C(=O)O)C[C@@H]2CCCC[C@@H]21)C1Cc2ccccc2C1` [Compound B10164, DArg-Arg-Pro-Hyp-Gly-f5f-Ser-DIgl-Oic-Arg]: 10 nM and 63.1 nM.
`N=C(N)NCCC[C@@H](N)C(=O)N[C@@H](CCCNC(=N)N)C(=O)N1CCC[C@H]1C(=O)N1C[C@H](O)C[C@H]1C(=O)NCC(=O)N[C@@H](Cc1cccs1)C(=O)N[C@@H](CO)C(=O)N[C@H](Cc1c(F)c(F)c(F)c(F)c1F)C(=O)N[C@@H](Cc1c(F)c(F)c(F)c(F)c1F)C(=O)N[C@@H](CCCNC(=N)N)C(=O)O` [Compound B10166, DArg-Arg-Pro-Hyp-Gly-Thi-Ser-Df5f-f5f-Arg]: the Kb was 7.94 nM in assay [1] and 10 nM in assay [2] (setting [3]).
Take `N=C(N)NCCC[C@@H](N)C(=O)N[C@@H](CCCNC(=N)N)C(=O)N1CCC[C@H]1C(=O)N1C[C@H](O)C[C@H]1C(=O)NCC(=O)N[C@@H](Cc1c(F)c(F)c(F)c(F)c1F)C(=O)N[C@@H](CO)C(=O)N[C@@H](C(=O)N1[C@H](C(=O)N[C@@H](CCCNC(=N)N)C(=O)O)C[C@@H]2CCCC[C@@H]21)C1Cc2ccccc2C1` [Compound B10210, DArg-Arg-Pro-Hyp-Gly-f5f-Ser-DIgl-Oic-Arg]: the Kb in assay [2] (setting [3]) was 15.8 nM.
